According to patent publication US20060094731A1, “New medicament” (priority 2003, published 2006):

Columns and labels:
[1] = system: patients with diabetic nephropathy; test: Double-blind, randomised, placebo-controlled study of 24-hour proteinuria on top of high-dose ARB
Procedure: The study was double-blind, randomised, and placebo-controlled. […] Patients were included if at the end of the 4-week treatment period with high-dose ARBs, their 24-hour proteinuria was >300 mg/24 h. They were randomised into 3 groups: 20 mg of compound A, 50 mg of compound A, or placebo once daily, on top of the high dose ARB. Treatment duration was 4 weeks. The primary variable was 24-hour proteinuria.
Out of the 23 randomised patients, 7 received compound A 20 mg, 8 received compound A 50 mg and 8 received placebo. The mean age (±SD) was similar for all 3 groups. The HbA1c level at entry was also similar for all 3 groups.

[2] = system: patients with type 2 diabetes and nephropathy; settings: literature studies (N Engl J Med 2001); correlating with reduction in onset of end-stage renal disease, no change in mortality rates; cited from earlier work

SMILES | decrease in 24-hour proteinuria ([1]; compound A 50 mg once daily, 4 weeks, on top of high-dose ARB, mean ± SD, 8 patients) [g/24 h] | mean decrease in 24-hour proteinuria ([1]; the 2 groups treated with compound A (20 mg and 50 mg), summary statement, called clinically relevant) | effect on proteinuria [2]
COc1ccccc1Oc1c(NS(=O)(=O)c2ccc(C)cn2)nc(-c2ccncc2)nc1OC [compound A] | −1.3±1.3 | around 1 g/24 h | 
CCCCC1=NC2(CCCC2)C(=O)N1Cc1ccc(-c2ccccc2-c2nnn[nH]2)cc1 [irbesartan] |  |  | decrease in proteinuria
CCCCc1nc(Cl)c(CO)n1Cc1ccc(-c2ccccc2-c2nn[nH]n2)cc1 [losartan] |  |  | decrease in proteinuria
